The record followed here is patent US11332443B2, “Derivatives of halo quinabactin” (THE REGENTS OF THE UNIVERSITY OF CALIFORNIA, priority 2015, dated 2022).

For orientation: IC50 means the concentration needed to halve the response being measured.

Common to all, as to assay type: biochemical
One assay deals with T1, PYR1-HAB1 (Arabidopsis thaliana, UniProt O49686).
T1 construct: 6xHis (N); made in house; host or cells: E. coli BL21[DE3]pLysS (stated for GST-HAB1)
T1 sequence (O49686 1-191): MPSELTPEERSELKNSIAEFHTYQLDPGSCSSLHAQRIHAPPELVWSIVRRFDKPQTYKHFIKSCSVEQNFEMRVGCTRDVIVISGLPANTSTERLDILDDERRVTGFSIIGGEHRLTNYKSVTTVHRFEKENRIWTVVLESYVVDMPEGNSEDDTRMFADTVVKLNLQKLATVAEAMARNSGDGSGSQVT
T1 sequence (Q9CAJ0 23-511 partner): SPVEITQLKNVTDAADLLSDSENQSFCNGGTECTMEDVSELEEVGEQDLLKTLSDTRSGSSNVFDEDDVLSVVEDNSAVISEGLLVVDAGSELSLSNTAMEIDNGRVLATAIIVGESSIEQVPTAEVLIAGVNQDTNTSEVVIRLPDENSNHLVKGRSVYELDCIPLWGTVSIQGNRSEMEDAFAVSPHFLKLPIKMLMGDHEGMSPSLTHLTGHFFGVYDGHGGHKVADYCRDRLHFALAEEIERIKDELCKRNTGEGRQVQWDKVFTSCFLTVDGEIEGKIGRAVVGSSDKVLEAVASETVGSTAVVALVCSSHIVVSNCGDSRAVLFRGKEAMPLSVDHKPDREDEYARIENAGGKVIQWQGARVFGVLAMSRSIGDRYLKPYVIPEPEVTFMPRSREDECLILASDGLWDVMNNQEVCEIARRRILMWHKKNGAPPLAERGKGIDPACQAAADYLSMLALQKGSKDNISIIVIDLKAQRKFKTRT
As to the kind of experiment: PP2C activity assay, PYR1-HAB1 inhibition. The following applies: for activity at 0.2 µM: 200 nM test compound, 100 nM HAB1 PP2C, 200 nM receptor, read-out: % Inhibition of PYR/PYL-HAB1 at 200 nM: PYR1; for IC50: dose response in triplicate, non-linear regression. The text has this:
(§1) The protein HAB1, a type 2 protein phosphatase (PP2C), is inhibited by PYR/PYL proteins in dependence of abscisic acid or other agonists. The potency of an agonist correlates with the level of inhibition of the PP2C, and therefore the IC50 (receptor-HAB1) can be used to compare the relative activity of different chemical analogues. Since inhibition of PP2C correlates to inhibition of seed-germination and increase in plant water-use efficiency, it serves as a powerful tool to quantify biological potential of a chemical acting as an analogue of abscisic acid.
(§2) HAB1 and PYL proteins were expressed and purified as described in Park et al. ((2009) Science 324(5930):1068-1071), with minor modifications. GST-HAB1 was produced by expression in BL21[DE3]pLysS host cells with an expression clone containing the HAB1 cDNA cloned into pGex-2T. Transformed E. coli cells were pre-cultured overnight, transferred to LB medium and cultured at 30° C. to culture A600 of ˜0.5 OD units. The culture was then cooled on ice and MnCl2 added to 4 mM and IPTG added to 0.3 mM. After 16 hours incubation at 15° C., cells were harvested and recombinant proteins were purified on glutathione agarose as described in Park et al. To obtain 6×His-PYL receptor fusion proteins, we used expression constructs previously described by Okamoto et al. 2013, (PNAS 110(29): 12132-12137).
(§3) PP2C activity assays using recombinant receptors and PP2Cs were carried out as follows: purified proteins were pre-incubated in 160 μl assay buffer containing (100 mM Tris-HCl-pH7.9, 100 mM NaCl, 3 μg bovine serum albumin and 0.1% 2-mercaptoethanol), 1 mM MnCl2 with carrier solvent (DMSO), quinabactin or quinabactin analogs (compounds of the present invention) for 30 minutes at room temperature. Reactions were started by adding 40 μL of a reaction solution containing 25 mM 4-nitrophenyl phosphate in assay buffer, after which absorbance measurements were immediately collected (405 nm) using a Wallac plate reader. […] Inhibition is indicated by reduced PP2C activity, which is expressed as a percentage of the control PP2C activity values that were obtained from assays containing carrier solvent instead but no test compound.

A further assay has as its target T2, PYL1-HAB1 (Arabidopsis thaliana, UniProt Q8VZS8).
T2 construct: 6xHis (N); made in house; host or cells: E. coli BL21[DE3]pLysS (stated for GST-HAB1)
T2 sequence (Q8VZS8 1-221): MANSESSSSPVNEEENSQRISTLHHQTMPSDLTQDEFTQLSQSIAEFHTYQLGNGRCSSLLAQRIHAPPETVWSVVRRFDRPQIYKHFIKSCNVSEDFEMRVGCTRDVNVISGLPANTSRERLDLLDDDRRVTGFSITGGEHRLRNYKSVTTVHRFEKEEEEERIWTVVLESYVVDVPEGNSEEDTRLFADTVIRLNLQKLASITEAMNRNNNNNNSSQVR
T2 sequence (Q9CAJ0 23-511 partner): T1 sequence (Q9CAJ0 23-511 partner)
As to the kind of experiment: PP2C activity assay, PYL1-HAB1 inhibition. The following applies: 200 nM test compound, 100 nM HAB1 PP2C, 200 nM receptor; read-out: % Inhibition of PYR/PYL-HAB1 at 200 nM: PYL1.
Text: as §1, §2
PP2C activity assays using recombinant receptors and PP2Cs were carried out as follows: purified proteins were pre-incubated in 160 μl assay buffer containing (100 mM Tris-HCl-pH7.9, 100 mM NaCl, 3 μg bovine serum albumin and 0.1% 2-mercaptoethanol), 1 mM MnCl2 with carrier solvent (DMSO), quinabactin or quinabactin analogs (compounds of the present invention) for 30 minutes at room temperature. Reactions were started by adding 40 μL of a reaction solution containing 25 mM 4-nitrophenyl phosphate in assay buffer, after which absorbance measurements were immediately collected (405 nm) using a Wallac plate reader. Reactions contained 100 nM HAB1 PP2C and 200 nM receptor and 200 nM test compound. Inhibition is indicated by reduced PP2C activity, which is expressed as a percentage of the control PP2C activity values that were obtained from assays containing carrier solvent instead but no test compound.

Another assay deals with T3, PYL2-HAB1 (Arabidopsis thaliana, UniProt O80992).
T3 construct: 6xHis (N); made in house; host or cells: E. coli BL21[DE3]pLysS (stated for GST-HAB1)
T3 sequence (O80992 1-190): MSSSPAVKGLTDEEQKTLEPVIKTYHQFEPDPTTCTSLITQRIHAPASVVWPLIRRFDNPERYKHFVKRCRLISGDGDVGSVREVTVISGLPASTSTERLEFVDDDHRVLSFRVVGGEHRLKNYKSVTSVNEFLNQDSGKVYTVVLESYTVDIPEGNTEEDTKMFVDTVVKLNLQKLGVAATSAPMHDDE
T3 sequence (Q9CAJ0 23-511 partner): T1 sequence (Q9CAJ0 23-511 partner)
Put plainly: PP2C activity assay, PYL2-HAB1 inhibition. To be noted: for percent inhibition at 0.2 µM: 200 nM test compound, 100 nM HAB1 PP2C, 200 nM receptor, read-out: % Inhibition of PYR/PYL-HAB1 at 200 nM: PYL2; for IC50: dose response in triplicate, non-linear regression.
Text: as §1, §2, §3

SMILES strings stand for the structures.

For `CCCN1C(=O)CCc2cc(NS(=O)(=O)Cc3ccccc3Br)cc(F)c21` [HQ20], the activity at 0.2 µM on PYR1-HAB1 is 97.4%; on PYL1-HAB1, 84.7%. Moreover, on PYL2-HAB1, the percent inhibition at 0.2 µM is 94.1%.
Take `CCCN1C(=O)CCc2cc(NS(=O)(=O)Cc3cccc(F)c3)cc(F)c21` [HQ21]: the figures for the activity at 0.2 µM on PYR1-HAB1 and on PYL1-HAB1 were 62.4% and 48.2%, respectively. The percent inhibition at 0.2 µM on PYL2-HAB1 was determined as 63.7%.
Taken in the same sequence, the figures for `CCCN1C(=O)CCc2cc(NS(=O)(=O)Cc3ccc(Cl)cc3Cl)cc(F)c21` [HQ22] were 91.5%, 70.6% and 86.3%.
Taken in the same sequence, the figures for `CCCN1C(=O)CCc2cc(NS(=O)(=O)Cc3cccc(Br)c3)cc(F)c21` [HQ23] were 90.8%, 85.7% and 87.8%.
On the same counts, the results for `CCCN1C(=O)CCc2cc(NS(=O)(=O)Cc3ccc([N+](=O)[O-])cc3)cc(F)c21` [HQ24] are 69%, 53.2% and 76.5%.
Take `CCCN1C(=O)CCc2cc(NS(=O)(=O)Cc3ccc(Br)cc3)cc(F)c21` [HQ25]: at PYR1-HAB1, the activity at 0.2 µM was determined as 33.8% and the half-inhibitory concentration (IC50) stood at 75 nM. Also, the activity at 0.2 µM at PYL1-HAB1 came to 20.8%. For the same compound, at PYL2-HAB1, the percent inhibition at 0.2 µM stood at 42.8% and the IC50 stood at 77 nM.
On to `CCCN1C(=O)CCc2cc(NS(=O)(=O)Cc3ccccc3)cc(F)c21` [HQ26], for which the activity at 0.2 µM at PYR1-HAB1 was 63.6%; at PYL1-HAB1 it was 51.4%. In addition, at PYL2-HAB1, the percent inhibition at 0.2 µM worked out at 74.8%.
On to `CCCN1C(=O)CCc2cc(NS(=O)(=O)Cc3cccc(Cl)c3)cc(F)c21` [HQ27], for which the activity at 0.2 µM at PYR1-HAB1 was determined as 90%; at PYL1-HAB1 it was 79.8%. For the same compound, on PYL2-HAB1, the percent inhibition at 0.2 µM was 88%.
As for `CCCN1C(=O)CCc2cc(NS(=O)(=O)Cc3ccc(C)cc3)ccc21` [Quinabactin], at PYR1-HAB1, the activity at 0.2 µM was 22% and the IC50 was 104 nM. Moreover, on PYL1-HAB1, the activity at 0.2 µM stood at 23%. For the same compound, on PYL2-HAB1, the percent inhibition at 0.2 µM is 44% and the IC50 came out at 262 nM.
